For test [1], the system named is genotype 1b-Con1 subgenomic replicon cell line. The test can be described thus: microbe, parasite or virus in culture. Format: cell-based, HCV. The following applies: Hepatitis C virus, read-out: EC50 1b.
In test [2] the test system is genotype 1a-H77 subgenomic replicon cell line. The test can be described thus: microbe, parasite or virus in culture. To be noted: Hepatitis C virus, read-out: EC50 1a. Format: cell-based, HCV.

Results on eleven compounds are retold here after patent US8415351B2 (priority 2007, dated 2013).

Structures are written as SMILES.

For orientation: EC50 means the concentration at which the effect is half-maximal. On to `COc1c(/C=C/c2ccc(NS(C)(=O)=O)cc2CN2CCCC2)cc(-n2ccc(=O)[nH]c2=O)cc1C(C)(C)C` [IB-L1-1.33, N-(4-{(E)-2-[3-tert-Butyl-5-(2,4-dioxo-3,4-dihydro-2H-pyrimidin-1-yl)-2-methoxy-phenyl]-vinyl}-3-pyrrolidin-1-ylmethyl-phenyl)-methanesulfonamide], for which the half-maximal effective concentration (EC50) in test [1] is 10 to 100 nM; in test [2] it was 100 to 1000 nM.
In the same order, the values of `COc1c(/C=C\c2ccc(NS(C)(=O)=O)cc2)cc(-n2ccc(=O)[nH]c2=O)cc1C(C)(C)C` [IB-L1-1.34, N-(4-{(Z)-2-[3-tert-Butyl-5-(2,4-dioxo-3,4-dihydro-2H-pyrimidin-1-yl)-2-methoxy-phenyl]-vinyl}-phenyl)-methanesulfonamide] are below 10 nM and 10 to 100 nM.
With `COc1c(/C=C/c2ccc(NS(C)(=O)=O)cc2)cc(-n2ccc(=O)[nH]c2=O)cc1C(C)(C)CO` [IB-L1-1.45, (E)-N-(4-(5-(2,4-dioxo-3,4-dihydropyrimidin-1(2H)-yl)-3-(1-hydroxy-2-methylpropan-2-yl)-2-methoxystyryl)phenyl)methanesulfonamide], the EC50 in test [1] was below 10 nM; in test [2], 10 to 100 nM.
With `COc1c(/C=C/c2ccc(NS(C)(=O)=O)cc2)cc(-n2ccc(=O)[nH]c2=O)cc1-c1ccco1` [IB-L1-1.46, (E)-N-(4-(5-(2,4-dioxo-3,4-dihydropyrimidin-1(2H)-yl)-3-(furan-2-yl)-2-methoxystyryl)phenyl)methanesulfonamide], the figures for the EC50 in test [1] and in test [2] were below 10 nM and 100 to 1000 nM, respectively.
For `COc1c(/C=C/c2ccc(NS(C)(=O)=O)cc2)cc(-n2ccc(=O)[nH]c2=O)cc1-c1ccsc1` [IB-L1-1.47, (E)-N-(4-(5-(2,4-dioxo-3,4-dihydropyrimidin-1(2H)-yl)-2-methoxy-3-(thiophen-3-yl)styryl)phenyl)methanesulfonamide], the EC50 is 10 to 100 nM in test [1] and 100 to 1000 nM in test [2].
In the case of `COc1c(/C=C/c2ccc(NS(C)(=O)=O)cc2)cc(-n2ccc(=O)[nH]c2=O)cc1-c1cccs1` [IB-L1-1.48, (E)-N-(4-(5-(2,4-dioxo-3,4-dihydropyrimidin-1(2H)-yl)-2-methoxy-3-(thiophen-2-yl)styryl)phenyl)methanesulfonamide], the EC50 in test [1] is below 10 nM; in test [2] it was 100 to 1000 nM.
As to `COc1c(/C=C/c2ccc(NS(C)(=O)=O)cc2)cc(-n2ccc(=O)[nH]c2=O)cc1S(C)(=O)=O` [IB-L1-1.49, (E)-N-(4-(5-(2,4-dioxo-3,4-dihydropyrimidin-1(2H)-yl)-2-methoxy-3-(methylsulfonyl)styryl)phenyl)methanesulfonamide], the EC50 in test [1] and in test [2] was above 1000 nM throughout.
With `COc1c(/C=C/c2ccc(NS(C)(=O)=O)cc2)cc(-n2ccc(=O)[nH]c2=O)cc1-c1ccoc1` [IB-L1-1.50, (E)-N-(4-(5-(2,4-dioxo-3,4-dihydropyrimidin-1(2H)-yl)-3-(furan-3-yl)-2-methoxystyryl)phenyl)methanesulfonamide], the EC50 in test [1] fell in the range of 10 to 100 nM; in test [2], 100 to 1000 nM.
Take `COc1c(I)cc(-n2ccc(=O)[nH]c2=O)cc1/C=C/c1ccc(NS(C)(=O)=O)cc1` [IB-L1-1.51, (E)-N-(4-(5-(2,4-dioxo-3,4-dihydropyrimidin-1(2H)-yl)-3-iodo-2-methoxystyryl)phenyl)methanesulfonamide]: the EC50 in test [1] is 10 to 100 nM; in test [2], above 1000 nM.
In the case of `COc1c(Br)cc(-n2ccc(=O)[nH]c2=O)cc1/C=C/c1ccc(NS(C)(=O)=O)cc1` [IB-L1-1.52, (E)-N-(4-(3-bromo-5-(2,4-dioxo-3,4-dihydropyrimidin-1(2H)-yl)-2-methoxystyryl)phenyl)methanesulfonamide], the results for the EC50 in test [1] and in test [2] were 100 to 1000 nM and above 1000 nM, respectively.
For `COC(=O)c1cc(NS(C)(=O)=O)ccc1CCc1cc(-n2ccc(=O)[nH]c2=O)cc(C(C)(C)C)c1OC` [IB-L5-2-1.1, methyl 2-(3-tert-butyl-5-(2,4-dioxo-3,4-dihydropyrimidin-1(2H)-yl)-2-methoxyphenethyl)-5-(methylsulfonamido)benzoate], the EC50 was below 10 nM in test [1] and 10 to 100 nM in test [2].
